What was measured:
[1] = Apparent elimination half life in monkey at 2 mg/kg, iv; type: ADME, organism-based, Macaca mulatta; settings: rhesus monkey, in vivo, read-out: betat1/2(app) (converted)
[2] = target: T1, Cytochrome P450 3A4 (Homo sapiens, UniProt P08684); assay: Time dependent inhibition of CYP3A4 (unknown origin) using MDZ as substrate measured at 5 mins; type: ADME
[3] = Metabolic stability in cynomolgus monkey liver microsomes assessed as half life; type: ADME, Macaca fascicularis, Microsome
[4] = target: MAP kinase-interacting serine/threonine-protein kinase 1 (Homo sapiens, UniProt Q9BUB5); assay: Inhibition of MNK1 (unknown origin)
[5] = Cmax in naive Sprague-Dawley rat plasma at 10 mg/kg, po measured at 5.25 hrs post dose; type: ADME, organism-based; set-up: route oral, dose 10 mg/kg, time 5.25 hrs
[6] = Solubility of the compound in propylene glycol; type: physicochemical
[7] = Toxicity in naive Sprague-Dawley rat assessed as motor impairment at 3 to 30 mg/kg, po measured after 5 hrs by rotarod test; type: organism-based; settings: in vivo, dose 3-30 mg/kg
[8] = Drug concentration in overnight fasted Sprague-Dawley rat spinal cord with streptozotocin induced diabetic peripheral neuropathic mechanical allodynia at 1 mg/kg, po measured at 5.5 hrs post dose; type: ADME, organism-based; settings: read-out: Ct
[9] = Cmax in Sprague-Dawley rat plasma with CCI induced thermal hyperalgesia at 1 mg/kg, po measured at 5.75 hrs post dose; type: ADME, organism-based; set-up: route oral, dose 1 mg/kg, time 5.75 hrs
[10] = Permeability across basolateral to apical side in human Caco-2 cells at 3 uM measured after 2 hrs by LC-MS/MS analysis; type: ADME, cell-based; settings: read-out: permeability
[11] = target: T1, Cytochrome P450 3A4; assay: Time dependent inhibition of CYP3A4 (unknown origin) using TST as substrate measured at 5 mins; type: ADME
[12] = test system: Rattus norvegicus; assay: Analgesic activity in streptozotocin induced diabetic peripheral neuropathic mechanical allodynia in overnight fasted Sprague-Dawley rat model assessed as reduction in pain response at 1 mg/kg, po measured after 5.5 hrs post treatment; type: functional; set-up: scale not given: the % may be the effect or the level left
[13] = species: Homo sapiens; assay: Inhibition of sodium channel (unknown origin) at 10 uM at 4 Hz electrophysiological method relative to control
[14] = Cmax in Sprague-Dawley rat plasma with CCI induced thermal hyperalgesia at 0.3 mg/kg, po measured at 5.75 hrs post dose; type: ADME, organism-based; set-up: route oral, dose 0.3 mg/kg, time 5.75 hrs
[15] = Metabolic stability in dog liver microsomes assessed as half life; type: ADME, Canis lupus familiaris, Microsome
[16] = Volume of distribution at steady state in monkey at 2 mg/kg, iv; type: ADME, organism-based, Macaca mulatta; settings: rhesus monkey, in vivo, read-out: Vdss
[17] = Ratio of drug concentration in spinal cord to plasma in CCI induced thermal hyperalgesia Sprague-Dawley rat model at 0.3 mg/kg, po measured at 5.75 hrs post dose; type: ADME, organism-based
[18] = Volume of distribution at steady state in rat at 2 mg/kg, iv; type: ADME, organism-based; settings: in vivo, read-out: Vdss
[19] = Drug uptake in Spinal cord of CCI induced thermal hyperalgesia Sprague-Dawley rat model assessed as spinal occupancy at 0.3 mg/kg, po measured at 5.75 hrs post dose in presence of [3H]BMT-046091; type: ADME, organism-based; settings: in vivo
[20] = Drug concentration in naive Sprague-Dawley rat spinal cord at 10 mg/kg, po measured at 5.25 hrs post dose; type: ADME, organism-based; settings: read-out: Ct
[21] = test system: Rattus norvegicus; assay: Analgesic activity in CCI induced thermal hyperalgesia in Sprague-Dawley rat assessed as reversal of thermal hyperalgesia by measuring reduction in paw withdrawal latency at 1 mg/kg, po measured after 5.5 hrs by Hargreaves test relative to control; type: functional; set-up: scale not given: the % may be the effect or the level left
[22] = target: Organic anion transporter 3 (Homo sapiens, UniProt Q8TCC7); assay: Inhibition of OAT3 (unknown origin)
[23] = Tmax in rat at 3 mg/kg, po; type: ADME, organism-based; settings: in vivo
[24] = Apparent elimination half life in dog at 2 mg/kg, iv; type: ADME, organism-based, Canis lupus familiaris; settings: in vivo, read-out: betat1/2(app) (converted)
[25] = target: Hepatic sodium/bile acid cotransporter (Homo sapiens, UniProt Q14973); assay: Inhibition of NTCP (unknown origin)
[26] = Drug concentration in overnight fasted Sprague-Dawley rat spinal cord with streptozotocin induced diabetic peripheral neuropathic mechanical allodynia at 0.3 mg/kg, po measured at 5.5 hrs post dose; type: ADME, organism-based; settings: read-out: Ct
[27] = target: Cytochrome P450 2D6 (Homo sapiens, UniProt P10635); assay: Inhibition of CYP2D6 (unknown origin); type: ADME
[28] = target: T1, Cytochrome P450 3A4; assay: Inhibition of CYP3A4 (unknown origin) using BFC as substrate; type: ADME
[29] = Apparent elimination half life in rat at 2 mg/kg, iv; type: ADME, organism-based; settings: in vivo, read-out: betat1/2(app) (converted)
[30] = target: T1, Cytochrome P450 3A4; assay: Time dependent inhibition of CYP3A4 (unknown origin) using MDZ as substrate measured at 30 mins; type: ADME
[31] = Drug concentration in Sprague-Dawley rat spinal cord with CCI induced thermal hyperalgesia at 0.3 mg/kg, po measured at 5.75 hrs post dose; type: ADME, organism-based; settings: read-out: Ct
[32] = AUC (infinity) in mouse at 3 mg/kg, po; type: ADME, organism-based; set-up: time infinity, route oral, dose 3 mg/kg; settings: in vivo
[33] = Tmax in monkey at 3 mg/kg, po; type: ADME, organism-based, Macaca mulatta; settings: rhesus monkey, in vivo
[34] = target: T1, Cytochrome P450 3A4; assay: Time dependent inhibition of CYP3A4 (unknown origin) using BSF as substrate measured at 30 mins; type: ADME
[35] = Cmax in mouse at 3 mg/kg, po; type: ADME, organism-based; set-up: route oral, dose 3 mg/kg; settings: in vivo
[36] = MRT in mouse at 2 mg/kg, iv; type: ADME, organism-based; settings: in vivo
[37] = AUC (infinity) in monkey at 3 mg/kg, po; type: ADME, organism-based, Macaca mulatta; set-up: route oral, time infinity, dose 3 mg/kg; settings: rhesus monkey, in vivo
[38] = target: BMP-2-inducible protein kinase (Homo sapiens, UniProt Q9NSY1); assay: Inhibition of BIKE (unknown origin)
[39] = target: AP2-associated protein kinase 1 (Homo sapiens, UniProt Q2M2I8); assay: Inhibition of […] in HEK293F cells assessed as reduction in phospho mu2 formation incubated for 3 hrs by Western blot analysis; type: cell-based
[40] = Cmax in overnight fasted Sprague-Dawley rat plasma with streptozotocin induced diabetic peripheral neuropathic mechanical allodynia at 0.1 mg/kg, po measured at 5.5 hrs post dose; type: ADME, organism-based; set-up: route oral, time 5.5 hrs, dose 0.1 mg/kg
[41] = Cmax in naive Sprague-Dawley rat plasma at 3 mg/kg, po measured at 5.25 hrs post dose; type: ADME, organism-based; set-up: route oral, time 5.25 hrs, dose 3 mg/kg
[42] = Oral bioavailability in monkey at 3 mg/kg; type: ADME, organism-based, Macaca mulatta; settings: rhesus monkey, in vivo
[43] = Protein binding in mouse brain assessed as unbound fraction at 1 uM incubated for 4 hrs by LC-MS/MS analysis; type: ADME, tissue-based
[44] = Solubility of the compound in acetate at pH 4.6 using crystalline form of sample; type: physicochemical
[45] = test system: Rattus norvegicus; assay: Analgesic activity in CCI induced thermal hyperalgesia Sprague-Dawley rat model assessed as efficacy at 0.1 mg/kg, po measured at 5.75 hrs post dose; type: functional
[46] = test system: Rattus norvegicus; assay: Analgesic activity in streptozotocin induced diabetic peripheral neuropathic mechanical allodynia in overnight fasted Sprague-Dawley rat model assessed as efficacy at 0.3 mg/kg, po measured at 5.5 hrs post dose; type: functional
[47] = test system: Rattus norvegicus; assay: Analgesic activity in streptozotocin induced diabetic peripheral neuropathic mechanical allodynia in overnight fasted Sprague-Dawley rat model assessed as efficacy at 0.1 mg/kg, po measured at 5.5 hrs post dose; type: functional
[48] = AUC (infinity) in monkey at 2 mg/kg, iv; type: ADME, organism-based, Macaca mulatta; set-up: time infinity, route intravenous, dose 2 mg/kg; settings: rhesus monkey, in vivo
[49] = target: Cytochrome P450 2B6 (Homo sapiens, UniProt P20813); assay: Inhibition of CYP2B6 (unknown origin); type: ADME
[50] = Solubility of the compound in ethanol; type: physicochemical

T1 sequence (P08684 whole entry): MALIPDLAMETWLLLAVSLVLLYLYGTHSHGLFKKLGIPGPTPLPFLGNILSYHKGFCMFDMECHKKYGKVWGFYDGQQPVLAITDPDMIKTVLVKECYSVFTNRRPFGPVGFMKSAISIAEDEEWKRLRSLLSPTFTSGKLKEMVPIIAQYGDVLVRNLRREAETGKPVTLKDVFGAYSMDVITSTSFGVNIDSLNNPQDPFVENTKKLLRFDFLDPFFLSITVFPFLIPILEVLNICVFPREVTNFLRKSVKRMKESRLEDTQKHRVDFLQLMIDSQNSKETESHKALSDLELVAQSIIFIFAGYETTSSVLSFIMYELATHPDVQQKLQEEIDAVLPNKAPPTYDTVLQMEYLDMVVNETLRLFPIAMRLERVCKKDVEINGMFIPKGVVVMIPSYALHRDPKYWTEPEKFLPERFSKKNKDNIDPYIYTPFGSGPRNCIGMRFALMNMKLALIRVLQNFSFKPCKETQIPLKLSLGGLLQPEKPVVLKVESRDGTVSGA
MAP kinase-interacting serine/threonine-protein kinase 1, sequence (Q9BUB5 whole entry): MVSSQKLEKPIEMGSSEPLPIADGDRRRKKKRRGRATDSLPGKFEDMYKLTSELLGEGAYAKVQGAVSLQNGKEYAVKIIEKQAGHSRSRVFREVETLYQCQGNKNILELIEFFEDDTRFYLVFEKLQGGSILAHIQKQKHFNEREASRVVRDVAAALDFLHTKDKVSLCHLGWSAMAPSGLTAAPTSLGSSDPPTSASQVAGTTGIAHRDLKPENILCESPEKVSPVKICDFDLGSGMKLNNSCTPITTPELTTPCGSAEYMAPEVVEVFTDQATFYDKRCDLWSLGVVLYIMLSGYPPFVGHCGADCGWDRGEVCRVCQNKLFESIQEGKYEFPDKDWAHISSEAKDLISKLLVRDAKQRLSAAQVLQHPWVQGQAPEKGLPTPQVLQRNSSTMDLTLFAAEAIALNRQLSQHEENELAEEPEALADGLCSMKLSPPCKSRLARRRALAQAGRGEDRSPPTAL
Organic anion transporter 3, sequence (Q8TCC7 whole entry): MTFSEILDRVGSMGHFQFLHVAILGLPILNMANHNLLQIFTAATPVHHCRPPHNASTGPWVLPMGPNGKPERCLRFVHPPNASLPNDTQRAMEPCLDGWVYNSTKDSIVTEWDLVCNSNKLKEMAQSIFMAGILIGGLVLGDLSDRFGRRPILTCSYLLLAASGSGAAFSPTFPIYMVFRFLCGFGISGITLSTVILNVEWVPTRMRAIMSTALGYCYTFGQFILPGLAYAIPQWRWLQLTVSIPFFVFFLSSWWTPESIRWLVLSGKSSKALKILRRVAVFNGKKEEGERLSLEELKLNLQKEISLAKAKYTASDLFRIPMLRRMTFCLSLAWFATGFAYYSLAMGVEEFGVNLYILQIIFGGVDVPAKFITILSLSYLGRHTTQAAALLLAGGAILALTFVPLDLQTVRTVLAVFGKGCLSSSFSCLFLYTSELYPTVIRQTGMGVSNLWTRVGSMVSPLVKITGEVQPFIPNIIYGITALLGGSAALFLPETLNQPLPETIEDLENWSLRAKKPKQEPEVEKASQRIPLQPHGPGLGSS
AP2-associated protein kinase 1, sequence (Q2M2I8 whole entry): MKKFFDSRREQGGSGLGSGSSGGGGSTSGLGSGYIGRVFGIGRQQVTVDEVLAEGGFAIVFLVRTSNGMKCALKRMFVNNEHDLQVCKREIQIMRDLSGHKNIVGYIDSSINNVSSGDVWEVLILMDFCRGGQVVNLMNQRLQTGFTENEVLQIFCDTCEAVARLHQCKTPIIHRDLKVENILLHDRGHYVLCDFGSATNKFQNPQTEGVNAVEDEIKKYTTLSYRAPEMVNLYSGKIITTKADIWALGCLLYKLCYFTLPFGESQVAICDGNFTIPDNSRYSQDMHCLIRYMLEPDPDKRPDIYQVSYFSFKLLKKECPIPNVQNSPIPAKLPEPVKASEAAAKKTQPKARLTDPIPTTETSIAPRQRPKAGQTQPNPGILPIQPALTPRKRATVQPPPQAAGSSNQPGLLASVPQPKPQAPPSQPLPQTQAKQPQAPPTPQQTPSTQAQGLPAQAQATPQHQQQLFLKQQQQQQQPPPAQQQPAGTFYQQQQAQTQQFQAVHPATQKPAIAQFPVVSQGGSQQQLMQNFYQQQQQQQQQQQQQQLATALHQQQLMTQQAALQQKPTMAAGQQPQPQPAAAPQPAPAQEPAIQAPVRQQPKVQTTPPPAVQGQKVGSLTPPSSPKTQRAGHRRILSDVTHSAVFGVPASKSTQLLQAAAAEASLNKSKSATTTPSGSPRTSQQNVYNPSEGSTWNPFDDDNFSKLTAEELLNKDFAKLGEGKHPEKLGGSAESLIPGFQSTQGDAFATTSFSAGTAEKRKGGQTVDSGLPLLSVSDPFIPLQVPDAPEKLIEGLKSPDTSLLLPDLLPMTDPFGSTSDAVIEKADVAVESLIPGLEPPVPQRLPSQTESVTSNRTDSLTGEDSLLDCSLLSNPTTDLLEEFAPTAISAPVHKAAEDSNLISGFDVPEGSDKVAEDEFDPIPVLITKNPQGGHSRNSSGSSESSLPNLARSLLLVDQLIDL
Cytochrome P450 2B6, sequence (P20813 whole entry): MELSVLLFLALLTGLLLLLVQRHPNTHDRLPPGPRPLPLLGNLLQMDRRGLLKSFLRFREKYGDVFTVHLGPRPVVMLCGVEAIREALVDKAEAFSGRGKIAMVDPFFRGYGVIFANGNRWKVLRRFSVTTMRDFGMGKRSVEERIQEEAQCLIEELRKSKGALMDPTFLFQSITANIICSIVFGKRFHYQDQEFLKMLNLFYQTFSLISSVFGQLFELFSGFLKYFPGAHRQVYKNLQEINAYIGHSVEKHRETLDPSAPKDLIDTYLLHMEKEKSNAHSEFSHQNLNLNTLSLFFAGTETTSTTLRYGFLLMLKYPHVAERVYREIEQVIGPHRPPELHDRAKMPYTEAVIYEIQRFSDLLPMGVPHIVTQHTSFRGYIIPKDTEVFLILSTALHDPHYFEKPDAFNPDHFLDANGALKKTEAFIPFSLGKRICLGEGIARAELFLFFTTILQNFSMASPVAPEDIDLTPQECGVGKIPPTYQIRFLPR
Hepatic sodium/bile acid cotransporter, sequence (Q14973 whole entry): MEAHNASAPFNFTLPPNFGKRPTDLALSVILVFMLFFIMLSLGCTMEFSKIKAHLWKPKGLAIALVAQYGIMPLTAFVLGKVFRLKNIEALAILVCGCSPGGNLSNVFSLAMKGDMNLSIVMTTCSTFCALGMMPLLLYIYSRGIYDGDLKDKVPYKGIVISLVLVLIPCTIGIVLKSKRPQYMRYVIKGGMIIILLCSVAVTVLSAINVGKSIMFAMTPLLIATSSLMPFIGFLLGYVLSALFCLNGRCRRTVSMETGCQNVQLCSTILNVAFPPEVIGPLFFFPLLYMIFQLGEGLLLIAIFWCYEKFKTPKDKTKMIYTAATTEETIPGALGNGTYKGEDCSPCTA
Cytochrome P450 2D6, sequence (P10635 whole entry): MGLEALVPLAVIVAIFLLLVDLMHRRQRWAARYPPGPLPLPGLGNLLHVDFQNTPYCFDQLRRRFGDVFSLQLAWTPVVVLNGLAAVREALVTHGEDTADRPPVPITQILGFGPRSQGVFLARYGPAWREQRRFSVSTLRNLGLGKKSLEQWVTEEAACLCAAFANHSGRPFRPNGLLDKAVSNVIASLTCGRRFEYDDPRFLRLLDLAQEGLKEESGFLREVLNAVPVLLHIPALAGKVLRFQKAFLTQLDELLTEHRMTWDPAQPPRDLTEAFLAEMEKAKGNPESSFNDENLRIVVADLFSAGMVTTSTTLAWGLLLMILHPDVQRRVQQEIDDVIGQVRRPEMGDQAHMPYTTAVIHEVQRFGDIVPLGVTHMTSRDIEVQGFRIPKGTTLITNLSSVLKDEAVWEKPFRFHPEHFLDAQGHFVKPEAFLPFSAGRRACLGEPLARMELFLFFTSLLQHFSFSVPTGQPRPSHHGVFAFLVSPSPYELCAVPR
BMP-2-inducible protein kinase, sequence (Q9NSY1 whole entry): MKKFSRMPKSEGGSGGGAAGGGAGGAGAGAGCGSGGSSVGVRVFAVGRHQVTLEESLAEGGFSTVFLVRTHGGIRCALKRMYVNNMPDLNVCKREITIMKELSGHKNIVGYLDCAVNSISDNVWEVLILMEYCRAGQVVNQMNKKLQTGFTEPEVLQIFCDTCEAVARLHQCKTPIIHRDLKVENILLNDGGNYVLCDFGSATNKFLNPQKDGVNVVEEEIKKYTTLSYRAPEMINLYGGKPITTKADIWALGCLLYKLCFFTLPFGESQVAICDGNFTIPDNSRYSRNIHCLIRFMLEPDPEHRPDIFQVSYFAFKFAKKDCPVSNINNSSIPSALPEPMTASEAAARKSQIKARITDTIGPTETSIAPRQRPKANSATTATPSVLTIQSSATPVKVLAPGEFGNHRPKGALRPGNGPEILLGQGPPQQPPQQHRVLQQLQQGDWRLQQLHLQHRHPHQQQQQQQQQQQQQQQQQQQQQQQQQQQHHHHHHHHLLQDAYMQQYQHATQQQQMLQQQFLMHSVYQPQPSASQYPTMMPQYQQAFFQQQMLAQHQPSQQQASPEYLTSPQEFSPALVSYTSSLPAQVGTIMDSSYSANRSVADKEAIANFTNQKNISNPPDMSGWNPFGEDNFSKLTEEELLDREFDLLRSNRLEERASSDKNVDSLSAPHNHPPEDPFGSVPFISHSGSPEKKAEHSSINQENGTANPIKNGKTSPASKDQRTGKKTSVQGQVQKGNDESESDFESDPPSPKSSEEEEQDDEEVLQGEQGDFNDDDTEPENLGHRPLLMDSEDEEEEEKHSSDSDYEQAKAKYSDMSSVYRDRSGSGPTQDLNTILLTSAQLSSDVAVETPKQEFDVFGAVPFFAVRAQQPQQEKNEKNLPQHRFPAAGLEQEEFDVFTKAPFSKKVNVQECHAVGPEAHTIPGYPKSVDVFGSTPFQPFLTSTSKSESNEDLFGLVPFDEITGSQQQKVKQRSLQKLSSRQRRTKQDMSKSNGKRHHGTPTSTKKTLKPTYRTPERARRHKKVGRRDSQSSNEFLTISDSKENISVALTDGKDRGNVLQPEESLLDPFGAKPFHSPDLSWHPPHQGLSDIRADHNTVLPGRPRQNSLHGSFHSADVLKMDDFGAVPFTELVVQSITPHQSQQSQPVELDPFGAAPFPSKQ

- half-life [1]: 342 min
- IC50 [2]: > 40 µM
- half-life [3]: 12.7 min
- IC50 [4]: 160 nM
- Cmax [5]: 780 nM
- solubility [6]: > 50 mg/mL
- concentration at 5.5 h [8]: 852 nM
- Cmax [9]: 63 nM
- Papp B→A at 2 h, 3 µM [10]: 13.8 ×10⁻⁶ cm/s
- IC50 [11]: > 40 µM
- inhibition [13]: 61%
- Cmax [14]: 19 nM
- half-life [15]: 30 min
- Vd [16]: 20.6 L/kg
- Kp at 5.75 h [17]: 23
- Vd [18]: 19.6 L/kg
- Occ [19]: 83%
- concentration at 5.25 h [20]: 16.1 µM
- IC50 [22]: > 30 µM
- Tmax [23]: 3 h
- half-life [24]: 288 min
- IC50 [25]: > 30 µM
- concentration at 5.5 h [26]: 206 nM
- IC50 [27]: > 20 µM
- IC50 [28]: > 20 µM
- half-life [29]: 522 min
- IC50 [30]: > 40 µM
- concentration at 5.75 h [31]: 431 nM
- AUC(0-inf) [32]: 5780 ng·h/mL
- Tmax [33]: 4 h
- IC50 [34]: > 20 µM
- Cmax [35]: 260 ng/mL
- MRT [36]: 63.8 h
- AUC(0-inf) [37]: 270 ng·h/mL
- IC50 [38]: 1900 nM
- IC50 [39]: 2 nM
- Cmax [40]: 6 nM
- Cmax [41]: 200 nM
- bioavailability [42]: 11%
- fraction unbound at 4 h, 1 µM [43]: 0.007
- solubility thermodynamic [44]: > 10000 µg/mL
- AUC(0-inf) [48]: 980 ng·h/mL
- IC50 [49]: > 20 µM
- solubility [50]: > 50 mg/mL
Structure (SMILES): CC(C)C[C@](C)(N)COc1ccc(-c2ccnc(C(F)F)c2)nc1C(F)F [PILAVAPADIN]
- Activity [7]: Non-Toxic
- Activity [12]: >60%
- Activity [21]: 97%
- Efficacy [45]: 25%
- Efficacy [46]: 20%
- Efficacy [47]: 20%
